Source: patent publication US11859014B2, “Peptidomimetics for the treatment of Norovirus infection” (EMORY UNIVERSITY, priority 2016, dated 2024)

How the values were obtained:
[1] = Cellular toxicity assay in PBM cells; type: cell-based; settings: human, read-out: Cytotoxicity, CC50 (μM) PBM
Method: (§1) The toxicity of the compounds was assessed in Vero, human PBM, CEM (human lymphoblastoid), MT-2, and HepG2 cells, as described previously (see Schinazi R. F., Sommadossi J.-P., Saalmann V., Cannon D. L., Xie M.-Y., Hart G. C., Smith G. A. & Hahn E. F. Antimicrob. Agents Chemother. 1990, 34, 1061-67). Cycloheximide was included as positive cytotoxic control, and untreated cells exposed to solvent were included as negative controls. The cytotoxicity CC50 was obtained from the concentration-response curve using the median effective method described previously (see Chou T.-C. & Talalay P. Adv. Enzyme Regul. 1984, 22, 27-55; Belen'kii M. S. & Schinazi R. F. Antiviral Res. 1994, 25, 1-11).

[2] = Cellular toxicity assay in CEM cells; type: cell-based; settings: human, read-out: Cytotoxicity, CC50 (μM) CEM
Method: as §1

[3] = Cellular toxicity assay in Vero cells; type: cell-based; settings: African green monkey, read-out: Cytotoxicity, CC50 (μM) VERO
Method: as §1

[4] = Cellular toxicity assay in Huh7 cells; type: cell-based; settings: human, read-out: Cytotoxicity, CC50 (μM) Huh7
Method: [The procedure below names another cell line; the source lists this cell line under the same test.] as §1

[5] = target: Norovirus GI.1 (Norwalk virus) protease (Norovirus (strain Human/NoV/United States/Norwalk/1968/GI) (Hu/NV/NV/1968/US), UniProt Q83883); test: FRET based enzyme assay, Norovirus GI.1 protease; type: biochemical; settings: 37° C.
Method: Norovirus GI.1 (Norwalk virus) protease were tested for enzymatic activity using a fluorescence resonance energy transfer (FRET) based enzyme assay. Norovirus GI.1 represents 5 to 10% of the clinical isolates. The FRET kinetic enzyme assays were performed as follows. The purified viral protease was diluted in reaction buffer (50 mM HEPES, pH 8.0, 120 mM NaCl, 0.4 mM EDTA, 20% glycerol, and 4 mM DTT) to a final concentration of 128 nM. Each reaction was initiated by addition of FRET substrate [(HiLyte Fluor 488) -[…]-(QXL520)]. To determine kinetic parameters, the FRET substrate was serially diluted to final concentrations of 100 μM to 49 nM and added to the reaction. The final reaction volume was 100 μL. The fluorescence emitted by substrate cleavage was monitored by a microplate reader (SpectraMax M5, Molecular Devices, Sunnyvale, CA, USA) at a 488 nm excitation wavelength with an emission wavelength of 520 nm. Readings were taken every minute for 20 minutes, and the reactions were performed at 37° C. In order to convert RFU into μM, a standard curve was created by measuring fluorescence of free HiLyte Fluor 488, which was serially diluted from 250 nM to 3.9 nM. All data were plotted and analyzed with GraphPad Prism v. 6.07.

[6] = system: NoV replicon RNA in HG23 cells (derived from Huh-7 cells); test: Norwalk virus replicon assay in HG23 cells; type: cell-based; settings: 120 h, five days incubation; for EC50: read-out: Anti-NoV activity (μM) EC50; for EC90: read-out: Anti-NoV activity (μM) EC90
Method: Norwalk virus replicon assays were performed as reported by Constantini et al. (Antivir Ther 2012, 17, 981-991). HG23 cells (derived from Huh-7 cells) containing NoV replicon RNA are seeded at a density of 3,000 cells/well in 96-well plates and incubated at 37° C. and 5% CO2 overnight. Compounds were tested at concentrations ranging from 0.1 to 100 μM. Compounds were added in triplicate to 80 to 90% confluent monolayers and incubated at 37° C. and 5% CO2. Untreated cells were included in each plate. Following five days incubation (37° C., 5% CO2), total cellular RNA was isolated with RNeasy96 extraction kit from Qiagen. Replicon RNA and an internal control (TaqMan rRNA control reagents, Applied Biosystems) were amplified in a single step.
The median effective concentrations (EC50) ranges of several of the compounds described herein against NoV are shown in Table 3: […]

Minerva virus protease = Minerva virus protease (Norovirus GII.4 (Minerva virus), UniProt P54634); test: FRET enzyme kinetic assay, NoV GII.4 Minerva virus protease; type: biochemical; settings: Minerva virus (GII.4) protease; inhibitor incubated with enzyme 90 minutes at 37° C. before FRET substrate
Method: The ability of these compounds to inhibit the NoV, specifically Minerva virus protease catalytic Cys139 covalently (IC50 and Ki) was determined with an enzyme kinetic assay. NoV strains, specifically GII.4 such as the Minerva virus are responsible for causing the majority (˜80%) of infections in humans. The activity of the inhibitors was evaluated by monitoring the cleavage of a FRET substrate every one minute for 20 minutes (excitation/emission: 488/520 nm) using a SpectraMax M5 microplate reader (Molecular Devices, Sunnyvale CA). Serial dilutions of each inhibitor were incubated with enzyme for 90 minutes at 37° C. before addition of the FRET substrate to ensure complete inactivation. Commercially available protease inhibitors chymostatin and rupintrivir were used as controls.

Sequence of Norovirus GI.1 (Norwalk virus) protease (Q83883 1101-1281): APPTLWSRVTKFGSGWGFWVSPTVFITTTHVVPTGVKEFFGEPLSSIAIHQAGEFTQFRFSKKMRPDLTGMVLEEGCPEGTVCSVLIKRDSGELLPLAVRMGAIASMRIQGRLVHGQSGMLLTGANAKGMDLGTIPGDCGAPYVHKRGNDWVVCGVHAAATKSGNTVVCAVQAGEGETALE
Sequence of Minerva virus protease (P54634 whole entry, looked up): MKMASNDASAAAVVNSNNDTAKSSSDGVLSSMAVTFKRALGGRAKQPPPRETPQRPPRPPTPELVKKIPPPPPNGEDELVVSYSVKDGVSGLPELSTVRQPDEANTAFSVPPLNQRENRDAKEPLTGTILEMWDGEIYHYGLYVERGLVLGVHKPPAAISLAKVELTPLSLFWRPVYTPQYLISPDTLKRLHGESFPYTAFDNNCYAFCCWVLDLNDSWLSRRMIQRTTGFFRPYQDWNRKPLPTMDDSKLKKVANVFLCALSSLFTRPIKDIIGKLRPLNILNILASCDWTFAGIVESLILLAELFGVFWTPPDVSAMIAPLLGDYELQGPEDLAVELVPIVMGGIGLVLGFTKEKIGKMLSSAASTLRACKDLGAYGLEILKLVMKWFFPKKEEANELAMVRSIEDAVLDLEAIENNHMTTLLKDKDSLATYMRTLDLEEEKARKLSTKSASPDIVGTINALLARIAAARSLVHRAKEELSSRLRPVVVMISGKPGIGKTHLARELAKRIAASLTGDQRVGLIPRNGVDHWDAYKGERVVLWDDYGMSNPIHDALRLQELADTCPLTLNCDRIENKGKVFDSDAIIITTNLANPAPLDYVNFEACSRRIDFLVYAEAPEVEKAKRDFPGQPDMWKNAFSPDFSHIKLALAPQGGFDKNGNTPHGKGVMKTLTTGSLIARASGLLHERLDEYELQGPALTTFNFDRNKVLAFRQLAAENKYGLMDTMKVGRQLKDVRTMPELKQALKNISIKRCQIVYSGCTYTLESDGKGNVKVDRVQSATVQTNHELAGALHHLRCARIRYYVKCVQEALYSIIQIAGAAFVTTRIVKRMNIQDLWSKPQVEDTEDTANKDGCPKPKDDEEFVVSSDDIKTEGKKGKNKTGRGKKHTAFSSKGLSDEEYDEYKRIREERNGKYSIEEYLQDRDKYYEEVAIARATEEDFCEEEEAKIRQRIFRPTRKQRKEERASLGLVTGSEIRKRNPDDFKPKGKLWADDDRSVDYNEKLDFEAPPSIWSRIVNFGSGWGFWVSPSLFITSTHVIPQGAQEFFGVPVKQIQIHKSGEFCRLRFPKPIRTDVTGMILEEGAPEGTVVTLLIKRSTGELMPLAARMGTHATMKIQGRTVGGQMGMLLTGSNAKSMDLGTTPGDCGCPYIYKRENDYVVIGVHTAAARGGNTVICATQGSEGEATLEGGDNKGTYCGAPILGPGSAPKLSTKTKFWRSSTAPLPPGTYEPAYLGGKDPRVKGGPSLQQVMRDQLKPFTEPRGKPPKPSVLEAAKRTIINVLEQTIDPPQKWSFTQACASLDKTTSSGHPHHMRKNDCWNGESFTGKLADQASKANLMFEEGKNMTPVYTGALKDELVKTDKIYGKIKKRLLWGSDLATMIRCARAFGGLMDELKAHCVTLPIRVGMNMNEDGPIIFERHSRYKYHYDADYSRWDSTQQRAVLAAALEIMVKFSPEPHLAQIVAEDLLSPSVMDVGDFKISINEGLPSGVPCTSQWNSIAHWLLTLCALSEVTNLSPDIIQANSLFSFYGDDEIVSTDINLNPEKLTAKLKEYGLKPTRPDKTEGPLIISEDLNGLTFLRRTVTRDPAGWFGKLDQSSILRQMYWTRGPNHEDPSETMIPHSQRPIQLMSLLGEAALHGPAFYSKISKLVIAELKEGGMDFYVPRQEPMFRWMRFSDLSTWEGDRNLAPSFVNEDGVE

SMILES | CC50 [1] | CC50 ([2]; CEM lymphoblastoid cells) | CC50 [3] | CC50 [4] | IC50 [5] | Ki [5] | CC50 [2] | EC50 [6] | EC90 [6] | IC50 (Minerva virus protease)
CC(C)C[C@H](NC(=O)[C@H](Cc1ccc(F)cc1)NC(=O)OCc1ccccc1)C(=O)N[C@H](C=O)C[C@@H]1CCCNC1=O [Compound 35, Benzyl ((S)-3-(4-fluorophenyl)-1-(((S)-4-methyl-1-oxo-1-(((S)-1-oxo-3-((S)-2-oxopiperidin-3-yl)propan-2-yl)amino)pentan-2-yl)amino)-1-oxopropan-2-yl)carbamate] | 52 µM | 35 µM | > 100 µM | 60 µM | 0.096 ± 0.011 µM | 0.465 ± 0.201 µM | – | – | – | –
CC(C)C[C@H](NC(=O)[C@H](Cc1cccc2ccccc12)NC(=O)OCc1ccccc1)C(=O)N[C@@H](C[C@@H]1CCNC1=O)C1OC1S(C)(=O)=O (stereo partly drawn) [Compound 67, Benzyl ((2S)-1-(((2S)-4-methyl-1-(((1S)-1-(3-(methylsulfonyl)oxiran-2-yl)-2-((S)-2-oxopyrrolidin-3-yl)ethyl)amino)-1-oxopentan-2-yl)amino)-3-(naphthalen-1-yl)-1-oxopropan-2-yl)carbamate] | > 100 µM | – | > 100 µM | – | > 10 µM | – | 64 µM | 4.33 µM | > 20 µM | –
CC(C)C[C@H](NC(=O)[C@H](Cc1cccc2ccccc12)NC(=O)OCc1ccccc1)C(=O)N[C@H](C=O)C[C@@H]1CCCNC1=O [Compound 19] | 24 µM | – | 20 µM | > 10 µM | – | – | 32 µM | 0.07 µM | 0.27 µM | –
CC(C)C[C@H](NC(=O)[C@H](Cc1cccc2ccccc12)NC(=O)OCc1ccccc1)C(=O)N[C@@H](C[C@@H]1CCCNC1=O)C(O)S(=O)(=O)O (stereo partly drawn) [Compound 37, Sodium (5S,8S,11S)-12-hydroxy-8-isobutyl-5-(naphthalen-1-ylmethyl)-3,6,9-trioxo-11-(((S)-2-oxopiperidin-3-yl)methyl)-1-phenyl-2-oxa-4,7,10-triazadodecane-12-sulfonate] | 44 µM | – | > 100 µM | 11 µM | 0.654 ± 0.285 µM | 2.24 ± 0.438 µM | 18 µM | – | – | 2.63 ± 1.04 µM
CC(C)C[C@H](NC(=O)[C@H](Cc1cccc2ccccc12)NC(=O)OCc1ccccc1)C(=O)N[C@H](/C=C(\C#N)C(N)=O)C[C@@H]1CCCNC1=O [Compound 36, Benzyl ((S)-1-(((S)-1-(((S,E)-5-amino-4-cyano-5-oxo-1-((S)-2-oxopiperidin-3-yl)pent-3-en-2-yl)amino)-4-methyl-1-oxopentan-2-yl)amino)-3-(naphthalen-1-yl)-1-oxopropan-2-yl)carbamate] | 45 µM | – | > 100 µM | 8 µM | 0.593 ± 0.124 µM | 1.7 ± 0.332 µM | 9 µM | – | – | 1.17 ± 0.333 µM
CC(C)C[C@H](NC(=O)[C@H](Cc1cccc2ccccc12)NC(=O)OCc1ccccc1)C(=O)N[C@@H](C[C@@H]1CCCNC1=O)C(=O)C(F)(F)F [Compound 39, Benzyl ((S)-1-(((S)-4-methyl-1-oxo-1-(((S)-4,4,4-trifluoro-3-oxo-1-((S)-2-oxopiperidin-3-yl)butan-2-yl)amino)pentan-2-yl)amino)-3-(naphthalen-1-yl)-1-oxopropan-2-yl)carbamate] | 39 µM | – | 11 µM | 14 µM | > 10 µM | – | 2 µM | – | – | –
O=C[C@H](C[C@@H]1CCCNC1=O)NC(=O)[C@H](Cc1ccccc1)NC(=O)[C@H](Cc1cccc2ccccc12)NC(=O)OCc1ccccc1 [Compound 83, Benzyl ((S)-3-(naphthalen-1-yl)-1-oxo-1-(((S)-1-oxo-1-(((S)-1-oxo-3-((S)-2-oxopiperidin-3-yl)propan-2-yl)amino)-3-phenylpropan-2-yl)amino)propan-2-yl)carbamate] | 48.7 µM | 17 µM | 41.2 µM | – | 0.084 ± 0.019 µM | 0.256 ± 0.057 µM | – | 0.33 µM | 0.91 µM | –
CC(C)C[C@H](NC(=O)[C@H](Cc1cccc2ccccc12)NC(=O)c1cnccn1)C(=O)N[C@H](C=O)C[C@@H]1CCNC1=O [Compound 29] | > 100 µM | – | > 100 µM | > 10 µM | – | – | 38 µM | 0.08 µM | 0.46 µM | –
CC(C)C[C@H](NC(=O)[C@H](Cc1cccc2ccccc12)NC(=O)OCc1ccccc1)C(=O)N[C@@H](C[C@@H]1CCCNC1=O)C(O)C(F)(F)F (stereo partly drawn) [Compound 38, Benzyl ((2S)-1-(((2S)-4-methyl-1-oxo-1-(((2S)-4,4,4-trifluoro-3-hydroxy-1-((S)-2-oxopiperidin-3-yl)butan-2-yl)amino)pentan-2-yl)amino)-3-(naphthalen-1-yl)-1-oxopropan-2-yl)carbamate] | 18 µM | 6 µM | 22 µM | 13 µM | > 10 µM | – | – | – | – | –
CC(C)C[C@H](NC(=O)[C@H](Cc1ccc(O)cc1)NC(=O)OCc1ccccc1)C(=O)N[C@H](C=O)C[C@@H]1CCCNC1=O [Compound 11, Benzyl ((S)-3-(4-hydroxyphenyl)-1-(((S)-4-methyl-1-oxo-1-(((S)-1-oxo-3-((S)-2-oxopiperidin-3-yl)propan-2-yl)amino)pentan-2-v)amino)-1-oxopropan-2-yl)carbamate] | > 100 µM | – | > 100 µM | > 10 µM | – | – | > 100 µM | 0.7 µM | 2.4 µM | –
CC(C)C[C@H](NC(=O)[C@H](Cc1cccc2ccccc12)NC(=O)c1cnccn1)C(=O)N[C@H](C=O)C[C@@H]1CCCNC1=O [Compound 23] | > 100 µM | – | > 100 µM | > 10 µM | – | – | 39 µM | 0.07 µM | 0.33 µM | –
CC(C)C[C@H](NC(=O)[C@H](Cc1cccc2ccccc12)NC(=O)OCc1ccccc1)C(=O)N[C@H](/C=C/C=O)C[C@@H]1CCNC1=O [Compound 64, Benzyl ((S)-1-(((S)-4-methyl-1-oxo-1-(((S,E)-5-oxo-1-((S)-2-oxopyrrolidin-3-yl)pent-3-en-2-yl)amino)pentan-2-yl)amino)-3-(naphthalen-1-yl)-1-oxopropan-2-yl)carbamate] | – | – | – | – | 10 µM | – | – | – | – | –
O=C(N[C@@H](Cc1cccc2ccccc12)C(=O)N[C@@H](Cc1ccccc1)C(=O)N[C@H](CCl)C[C@@H]1CCCNC1=O)OCc1ccccc1 [Compound 84, Benzyl ((S)-1-(((S)-1-(((S)-1-chloro-3-((S)-2-oxopiperidin-3-yl)propan-2-yl)amino)-1-oxo-3-phenylpropan-2-yl)amino)-3-(naphthalen-1-yl)-1-oxopropan-2-yl)carbamate] | 75 µM | 26.6 µM | 51.7 µM | – | > 100 µM | – | – | > 10 µM | – | –
